Test results published in patent US20220056043A1, “NITROGEN-CONTAINING FUSED CYCLIC COMPOUND, PREPARATION METHOD THEREFOR AND USE THEREOF” (SICHUAN KELUN-BIOTECH BIOPHARMACEUTICAL CO., LTD., priority 2019, published 2022).
Structures can show the parent of a compound that is named as a salt.

Experiments:
[1] = molecular target: T1, hNLRP3 inflammasome (Homo sapiens, UniProt Q96P20); experiment: Agonistic effect on the expression of IL-1β in THP-1 cells after PMA-induced differentiation (HTRF); type: cell-based; settings: IL-1β level, PMA-differentiated THP-1 cells, 6 hours
T1 construct: endogenous in cells; host or cells: THP-1 cells, PMA-differentiated
T1 sequence (Q96P20 whole entry): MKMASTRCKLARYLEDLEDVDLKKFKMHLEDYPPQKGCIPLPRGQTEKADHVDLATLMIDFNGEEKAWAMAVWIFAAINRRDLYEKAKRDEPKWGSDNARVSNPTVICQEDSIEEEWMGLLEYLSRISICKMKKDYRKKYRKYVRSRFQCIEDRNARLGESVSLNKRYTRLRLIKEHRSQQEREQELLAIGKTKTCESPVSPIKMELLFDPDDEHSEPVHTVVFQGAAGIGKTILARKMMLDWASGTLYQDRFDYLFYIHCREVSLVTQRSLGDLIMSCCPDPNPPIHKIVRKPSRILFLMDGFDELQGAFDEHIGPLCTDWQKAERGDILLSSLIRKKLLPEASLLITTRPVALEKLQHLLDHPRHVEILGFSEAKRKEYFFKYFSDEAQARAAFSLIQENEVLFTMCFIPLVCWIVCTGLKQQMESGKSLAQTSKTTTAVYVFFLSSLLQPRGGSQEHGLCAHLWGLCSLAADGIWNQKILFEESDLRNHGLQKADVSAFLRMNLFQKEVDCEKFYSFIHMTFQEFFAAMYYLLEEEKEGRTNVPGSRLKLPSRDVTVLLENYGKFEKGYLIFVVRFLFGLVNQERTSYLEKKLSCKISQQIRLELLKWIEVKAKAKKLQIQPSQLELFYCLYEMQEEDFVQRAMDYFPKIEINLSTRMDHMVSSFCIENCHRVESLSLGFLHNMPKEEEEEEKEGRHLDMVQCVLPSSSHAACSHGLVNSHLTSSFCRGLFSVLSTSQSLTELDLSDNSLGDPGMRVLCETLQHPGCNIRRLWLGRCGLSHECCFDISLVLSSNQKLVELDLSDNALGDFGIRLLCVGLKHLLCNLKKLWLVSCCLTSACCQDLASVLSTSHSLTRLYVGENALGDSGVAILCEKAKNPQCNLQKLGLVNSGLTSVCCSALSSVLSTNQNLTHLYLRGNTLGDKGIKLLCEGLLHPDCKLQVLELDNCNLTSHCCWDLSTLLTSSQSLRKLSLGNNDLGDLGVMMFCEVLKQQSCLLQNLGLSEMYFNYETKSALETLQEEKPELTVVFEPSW
Text: Experimental Example 1: Agonistic Effect of the Compound of the Invention on the Expression of IL-1β in THP-1 Cells after PMA-Induced Differentiation
In this test, a HTRF (homogeneous time-resolved fluorescence) detection method was used to test the effect of the compound of the invention on the level of downstream cytokine IL-1β of NLRP3 to evaluate the agonistic effect of the compound on hNLRP3 inflammasome or hNLRP3 inflammasome pathway at a cellular level.
Reagent: RPMI 1640 (Hyclone); heat-inactivated FBS (fetal bovine serum) (Gibco); PMA (phorbol myristal acetate) (Beyotime)
Kit: IL-1β assay kit (CISIO)
1) THP-1 cells in a logarithmic growth phase were seeded in a T75 culture flask at a density of 5×10^5 cells/well, and cultured in a cell incubator at 37° C., 5% CO2 for 24 hours, and then 1 μM PMA was used to induce THP-1 suspension cells to become adherent macrophages. The medium was RPMI 1640 containing 10% heat-inactivated FBS and 0.05 mM β-mercaptoethanol.
2) The cells were induced and cultured for 24 hours. Then the adherent cells were trypsinized and centrifuged at 1000 rpm for 5 min. The supernatant was removed, and the cells were resuspended to a density of 2×10^6 cells/mL in RPMI 1640 medium containing 2% heat-inactivated FBS. 50 μL/well of cell resuspension was taken and spread on a 96-well plate such that the number of cells in each well was 1×10^5.
3) An appropriate amount of 10 mM DMSO solution of the compound to be tested was taken and diluted to a concentration of 2× test concentration with RPMI 1640 medium containing 2% heat-inactivated FBS. 50 μL/well of the dilution was added to the cells in the 96-well plate, and mixed well. The plate was placed in a cell incubator at 37° C., 5% CO2 for 6 hours. The supernatant was collected, and the level of IL-1β was measured in accordance with the instructions of the IL-1β detection kit.
4) EC50 was fitted by the GraphPad software log(agonist) vs. response—Variable slope four-parameter method.

[2] = molecular target: T2, hTLR8 (Homo sapiens, UniProt Q9NR97); experiment: Agonistic effect on hTLR8, HEK-Blue hTLR8 cells, alkaline phosphatase secretion; type: cell-based; settings: 16 hours
T2 construct: host or cells: HEK-Blue hTLR8 cells
T2 sequence (Q9NR97 27-1041): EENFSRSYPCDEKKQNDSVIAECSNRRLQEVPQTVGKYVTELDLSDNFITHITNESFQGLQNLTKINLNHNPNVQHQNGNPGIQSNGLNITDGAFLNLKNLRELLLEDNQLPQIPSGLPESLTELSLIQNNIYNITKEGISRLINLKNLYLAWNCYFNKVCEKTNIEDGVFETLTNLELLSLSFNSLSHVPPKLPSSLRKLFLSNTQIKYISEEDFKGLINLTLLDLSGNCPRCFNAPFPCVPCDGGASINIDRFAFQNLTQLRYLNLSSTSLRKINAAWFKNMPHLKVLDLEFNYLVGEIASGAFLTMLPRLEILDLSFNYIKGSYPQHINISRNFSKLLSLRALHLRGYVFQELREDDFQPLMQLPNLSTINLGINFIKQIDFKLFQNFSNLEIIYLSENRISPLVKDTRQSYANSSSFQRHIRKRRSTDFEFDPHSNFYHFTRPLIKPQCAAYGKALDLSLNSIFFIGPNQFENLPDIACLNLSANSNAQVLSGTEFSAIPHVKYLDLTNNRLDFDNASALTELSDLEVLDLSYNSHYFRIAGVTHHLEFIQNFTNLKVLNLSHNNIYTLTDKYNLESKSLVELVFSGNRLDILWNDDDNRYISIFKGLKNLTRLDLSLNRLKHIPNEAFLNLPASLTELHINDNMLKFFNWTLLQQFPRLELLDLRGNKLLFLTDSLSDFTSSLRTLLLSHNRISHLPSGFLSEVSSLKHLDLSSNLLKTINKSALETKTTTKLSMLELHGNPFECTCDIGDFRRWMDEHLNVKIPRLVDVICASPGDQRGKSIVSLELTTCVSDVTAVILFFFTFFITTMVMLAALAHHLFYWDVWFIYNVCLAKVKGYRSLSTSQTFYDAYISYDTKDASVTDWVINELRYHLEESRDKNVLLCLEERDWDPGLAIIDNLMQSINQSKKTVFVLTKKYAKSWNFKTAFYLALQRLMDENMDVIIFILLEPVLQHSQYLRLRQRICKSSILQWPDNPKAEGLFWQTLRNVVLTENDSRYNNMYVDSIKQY
Method: Experimental Example 4: Agonistic Effect of the Compound of the Invention on hTLR8
In this test, the secretion of alkaline phosphatase in HEK-Blue cells was measured to test the activating effect of the compound of the invention on TLR8 signaling pathway, so as to evaluate the specificity of the agonistic effect of the compound on NLRP3 pathway.
Reagents: DMEM (High glucose); FBS (fetal bovine serum) (Gibco); QUANTI-Blue/InvivoGen/rep-qb2
Cells: HEK-Blue™ hTLR8 cells (human TLR 8 cells) (InvivoGen) Experimental Procedures:
1) The HEK-Blue™ hTLR8 cells in a logarithmic growth phase were trypsinized and resuspended in the medium to a concentration of 2×10^6 cells/mL. 50 μL/well of the cell suspension was added to a 96-well plate. An appropriate amount of 10 mM DMSO solution of the compound to be tested was taken and diluted to a concentration of 2× test concentration with the medium. 50 μL/well was added to the cells in the 96-well plate. The plate was incubated in an incubator at 37° C. and 5% CO2 for 16 hours. The medium was DMEM (High glucose) containing 10% FBS. 2) After the cell incubation, 10 μL of cell culture supernatant was transferred to a 96-well plate. 90 μL/well of QUANTI-Blue detection solution was added, and the mixture was incubated at 37° C. for 3 hours. OD620 was read using a microplate reader.
3) The EC50 of the effect of the tested compound to stimulate hTLR8 was fitted by the GraphPad software log(agonist) vs. response—Variable slope four-parameter method.

Row | SMILES | EC50 [1] [µM] | EC50 [2] [nM]
1 | C[C@H](O)CNc1cc(N)nc2cc(-c3ccn[nH]3)sc12 [Compound 33] | 0.26 | > 100000
2 | Nc1cc(NC2CC(O)C2)c2sc(-c3ccn[nH]3)cc2n1 (stereo not shown) [Compound 40, 3-((5-amino-2-(1H-pyrazol-5-yl)thieno[3,2-b]pyridin-7-yl)amino)cyclobutanol] | 0.39 | > 100000
3 | CN1CC[C@H](Nc2cc(N)nc3cc(-c4ccn[nH]4)sc23)C1 [Compound 51, (S)—N^7-(1-methylpyrrolidin-3-yl)-2-(1H-pyrazol-5-yl)thieno[3,2-b]pyridine-5,7-diamine] | 0.33 | > 100000
4 | CC(=O)NCCNc1cc(N)nc2cc(-c3ccn[nH]3)sc12 [Compound 52] | 0.2 | > 100000
5 | CC(=O)NCCCNc1cc(N)nc2cc(-c3ccn[nH]3)sc12 [Compound 53] | 0.18 | > 100000
6 | CN1CCN(CCCNc2cc(N)nc3cc(-c4ccn[nH]4)sc23)CC1 [Compound 54, N^7-(3-(4-methylpiperazin-1-yl)propyl)-2-(1H-pyrazol-5-yl)thieno[3,2-b]pyridine-5,7-diamine] | 0.92 | > 100000
7 | Nc1cc(NCCN2CCOCC2)c2sc(-c3ccn[nH]3)cc2n1 [Compound 55, N^7-(2-morpholinoethyl)-2-(1H-pyrazol-5-yl)thieno[3,2-b]pyridine-5,7-diamine] | 0.44 | > 100000
8 | CN1CCN(CCNc2cc(N)nc3cc(-c4ccn[nH]4)sc23)CC1 [Compound 57, N^7-(2-(4-methylpiperazin-1-yl)ethyl)-2-(1H-pyrazol-5-yl)thieno[3,2-b]pyridine-5,7-diamine] | 0.57 | > 100000
9 | Nc1cc(NCCCNC(=O)C2CC2)c2sc(-c3ccn[nH]3)cc2n1 [Compound 58] | 0.26 | > 100000
10 | CC(=O)N(C)CCNc1cc(N)nc2cc(-c3ccn[nH]3)sc12 [Compound 73, N-(2-((5-amino-2-(1H-pyrazol-5-yl)thieno[3,2-b]pyridin-7-yl)amino)ethyl)-N-methylethanamide] | 0.18 | > 100000
11 | CC(=O)N(C)CCCNc1cc(N)nc2cc(-c3ccn[nH]3)sc12 [Compound 74, N-(3-((5-amino-2-(1H-pyrazol-5-yl)thieno[3,2-b]pyridin-7-yl)amino)propyl)-N-methylacetamide] | 0.26 | > 100000
12 | CN(CCCNc1cc(N)nc2cc(-c3ccn[nH]3)sc12)C(=O)C1CC1 [Compound 76, N-(3-((5-amino-2-(1H-pyrazol-5-yl)thieno[3,2-b]pyridin-7-yl)amino)propyl)-N-methylcyclopropane formamide] | 0.27 | > 100000
13 | CN1CCC(Nc2cc(N)nc3cc(-c4ccn[nH]4)sc23)CC1 [Compound 89, N^7-(1-methylpiperidin-4-yl)-2-(1H-pyrazol-5-yl)thieno[3,2-b]pyridine-5,7-diamine] | 0.16 | > 100000
14 | Nc1cc(NCCCO)c2sc(-c3ccncc3)cc2n1 [Compound 90, 3-((5-amino-2-(pyridin-4-yl)thieno[3,2-b]pyridin-7-yl)amino)-1-propanol] | 6.03 | > 100000

Stronger by EC50 [1], values ahead:

Row | EC50 [1] [µM] | EC50 [2] [nM] | SMILES
15 | 0.11 | > 100000 | Nc1cc(N[C@@H]2CC[C@H](O)C2)c2sc(-c3ccn[nH]3)cc2n1 [Compound 31, (1S,3R)-3-((5-amino-2-(1H-pyrazol-5-yl)thieno[3,2-b]pyridin-7-yl)amino)cyclopentanol]
16 | 0.11 | > 100000 | CN(CCNc1cc(N)nc2cc(-c3ccn[nH]3)sc12)C(=O)C1CC1 [Compound 75, N-(2-((5-amino-2-(1H-pyrazol-5-yl)thieno[3,2-b]pyridin-7-yl)amino)ethyl)-N-methylcyclopropionamide]
17 | 0.11 | > 100000 | Cc1cccc(-c2cc3nc(N)cc(NCCCO)c3s2)n1 [Compound 91, 3-((5-amino-2-(6-methylpyridin-2-yl)thieno[3,2-b]pyridin-7-yl)amino)-1-propanol]
18 | 0.1 | > 100000 | Nc1cc(N[C@H]2CC[C@H](O)C2)c2sc(-c3ccn[nH]3)cc2n1 [Compound 26, (1S,3S)-3-((5-amino-2-(1H-pyrazol-5-yl)thieno[3,2-b]pyridin-7-yl)amino)cyclopentanol]
19 | 0.1 | > 100000 | Nc1cc(NCc2ccccn2)c2sc(-c3ccn[nH]3)cc2n1 [Compound 59, 2-(1H-pyrazol-5-yl)-N^7-(pyridin-2-ylmethyl)thieno[3,2-b]pyridine-5,7-diamine]
20 | 0.1 | > 100000 | Cn1ccc(CNc2cc(N)nc3cc(-c4ccn[nH]4)sc23)n1 [Compound 60, N^7-(1-methyl-1H-pyrazol-3-yl)methyl-2-(1H-pyrazol-5-yl)thieno[3,2-b]pyridine-5,7-diamine]
21 | 0.1 | > 100000 | Nc1cc(NC2CCOC2)c2sc(-c3ccn[nH]3)cc2n1 (stereo not shown) [Compound 61, 2-(1H-pyrazol-5-yl)-N^7-(tetrahydrofuran-3-yl)thieno[3,2-b]pyridine-5,7-diamine]
22 | 0.07 | > 100000 | Cn1cnc(CNc2cc(N)nc3cc(-c4ccn[nH]4)sc23)c1 [Compound 63, N^7-(1-methyl-1H-imidazol-4-yl)methyl-2-(1H-pyrazol-5-yl)thieno[3,2-b]pyridine-5,7-diamine]
23 | 0.06 | > 100000 | CC1CN(CCNc2cc(N)nc3cc(-c4ccn[nH]4)sc23)CC(C)O1 (stereo not shown) [Compound 62]
24 | 0.05 | > 100000 | Nc1cc(NCCNC(=O)C2CC2)c2sc(-c3ccn[nH]3)cc2n1 [Compound 64]
25 | 0.04 | > 100000 | CCC(=O)N(C)CCNc1cc(N)nc2cc(-c3ccn[nH]3)sc12 [Compound 88, N-(2-((5-amino-2-(1H-pyrazol-5-yl)thieno[3,2-b]pyridin-7-yl)amino)ethyl)-N-methylpropionamide]
26 | 0.02 | > 100000 | Nc1cc(N[C@@H]2CC[C@@H](O)C2)c2sc(-c3ccn[nH]3)cc2n1 [Compound 30s, (1R,3R)-3-((5-amino-2-(1H-pyrazol-5-yl)thieno[3,2-b]pyridin-7-yl)amino)cyclopentanol hydrochloride]
